# Like-named read-outs stand apart in the source and are kept apart here.
# What was measured:
# [1] = tested on: Pseudomonas aeruginosa (PRD-10); test: MIC in nutrient agar, Pseudomonas aeruginosa (PRD-10); assay type: cell-based, Pseudomonas aeruginosa (ATCC 15442)
# Procedure: (§1) The minimum inhibitory concentration (MIC) for the compounds listed in Table I is determined for bacteria, using nutrient agar, and 7 yeast and fungi, using malt yeast agar. A one percent solution of the test compound is prepared in a mixture of acetone and water.
# (§2) Nutrient agar is prepared at pH 6.8, representing a neutral medium, and at pH 8.2, representing an alkaline medium. The nutrient agars are prepared by adding 23 g of nutrient agar to one-liter of deionized water. In addition, the alkaline medium is prepared by adjusting a 0.04M solution of N-(tris-(hydroxymethyl)methyl)glycine buffered deionized water with concentrated sodium hydroxide to a pH of 8.5.
# (§3) The test tubes containing the agar are cooled in a water bath until the temperature of the agar is 48° C. Then, an appropriate amount of the one percent solution of the test compound is added (except in the controls where no compound is added) to the respective test tubes so that the final concentrations are 500, 250, 100, 50, 25, 10, 2.5, 1.0 and zero parts per million of the test compound in the agar, thus having a known concentration of test compound dispersed therein. The contents of the test tubes are then transferred to respective petri plates. After drying for 24 hours, the petri plates containing nutrient agar are inoculated with bacteria and those containing malt yeast agar are inoculated with yeast and fungi.
# (§4) The inoculation with bacteria is accomplished by using the following procedure. Twenty-four hour-cultures of each of the bacteria are prepared by incubating the respective bacteria in tubes containing nutrient broth for 24 hours at 30° C. in a shaker. Dilutions of each of the 24 hour-cultures are made so that nine separate suspensions (one for each of the nine test bacteria) are made, each containing 10^8 colony forming units (CFU) per mL of suspension of a particular bacteria. Aliquots of 0.3 mL of each of the bacterial suspensions are used to fill the individual wells of Steer's Replicator. For each microbial suspension, 0.3 mL was used to fill three wells (i.e., three wells of 0.3 mL each) so that for the nine different bacteria, 27 wells are filled. The Steer's Replicator is then used to inoculate both the neutral and alkaline pH nutrient agar petri plates.
# (§5) The inoculated petri plates are incubated at 30° C. for 48 hours and then read to determine if the test compound which is incorporated into the agar prevented growth of the respective bacteria.
# (§6) Table II lists the bacteria, yeast and fungi used in the MIC test described above along with their respective American Type Culture Collection (ATCC) identification numbers.
# (§7) In Tables III and IV, the MIC values of the compounds described in Table I as compared to the MIC of a standard commercial preservative (with 1-(3-chloroalkyl)-3,5,7-triaza-1-azoniaadamantane chloride as the active agent and referred to in Tables III and IV as "STANDARD I") are set forth for the bacteria organisms and yeast/fungi organisms which are listed in Table II.
# Enterobacter aerogenes = test: MIC in nutrient agar, Enterobacter aerogenes; assay type: cell-based, Enterobacter aerogenes (ATCC 13048); conditions: Klebsiella aerogenes
# Procedure: as §1, §2, §3, §4, §5, §6, §7
# Klebsiella pneumonias = test: MIC in nutrient agar, Klebsiella pneumonias; assay type: cell-based, Klebsiella pneumonias (ATCC 8308)
# Procedure: as §1, §2, §3, §4, §5, §6, §7
# Pseudomonas aeruginosa = test: MIC in nutrient agar, Pseudomonas aeruginosa (Pa); assay type: cell-based, Pseudomonas aeruginosa (ATCC 10145)
# Procedure: as §1, §2, §3, §4, §5, §6, §7
# Trichoderma viride = test: MIC in malt yeast agar, Trichoderma viride; assay type: cell-based, Trichoderma viride (ATCC 8678); conditions: read-out: Minimum Inhibitory Concentration (MIC)
# Procedure: as §1
# (§8) Malt yeast agar is prepared by adding 3 g yeast extract and 45 g malt agar per liter of deionized water. The specific agar is dispensed in 30 mL aliquots into 25×200 mm test tubes, capped and autoclaved for 15 minutes at 115° C.
# as §3
# (§9) The inoculation with the yeast and fungi is accomplished as follows. Cultures of yeast and fungi are incubated for seven days on malt yeast agar at 30° C. These cultures are used to prepare suspensions by the following procedure. A suspension of each organism is prepared by adding 10 mL of sterile saline and 10 microliters of octylphenoxy polyethoxy ethanol to the agar slant of yeast or fungi. The sterile saline/octylphenoxy polyethoxy ethanol solution is then agitated with a sterile swab to suspend the microorganism grown on the slant. Each resulting suspension is diluted into sterile saline (1 part suspension: 9 parts sterile saline). Aliquots of these dilutions are placed in individual wells of Steer's Replicator and petri plates inoculated as previously described. The petri plates are incubated at 30° C. and read after 48 hours for yeast and 72 hours for fungi.
# as §6, §7
# Saccharomyces cerevisiae = test: MIC in malt yeast agar, Saccharomyces cerevisiae; assay type: cell-based, Saccharomyces cerevisiae (ATCC 4105); conditions: read-out: Minimum Inhibitory Concentration (MIC)
# Procedure: as §1, §8, §3, §9, §6, §7
# Aureobasidium pullulan = test: MIC in malt yeast agar, Aureobasidium pullulan; assay type: cell-based, Aureobasidium pullulan (ATCC 16622); conditions: read-out: Minimum Inhibitory Concentration (MIC)
# Procedure: as §1, §8, §3, §9, §6, §7
# Staphylococcus aureus = test: MIC in nutrient agar, Staphylococcus aureus; assay type: cell-based, Staphylococcus aureus (ATCC 6538)
# Procedure: as §1, §2, §3, §4, §5, §6, §7
# Salmonella choleraesuis = test: MIC in nutrient agar, Salmonella choleraesuis; assay type: cell-based, Salmonella choleraesuis (ATCC 10708); conditions: Salmonella enterica
# Procedure: as §1, §2, §3, §4, §5, §6, §7
# Penicillium chrysogenum = test: MIC in malt yeast agar, Penicillium chrysogenum; assay type: cell-based, Penicillium chrysogenum (ATCC 9480); conditions: read-out: Minimum Inhibitory Concentration (MIC)
# Procedure: as §1, §8, §3, §9, §6, §7
# Escherichia coli = test: MIC in nutrient agar, Escherichia coli; assay type: cell-based, Escherichia coli (ATCC 11229)
# Procedure: as §1, §2, §3, §4, §5, §6, §7
# Bacillus subtilis = test: MIC in nutrient agar, Bacillus subtilis; assay type: cell-based, Bacillus subtilis (ATCC 8473)
# Procedure: as §1, §2, §3, §4, §5, §6, §7
# Fusarium oxysporum = test: MIC in malt yeast agar, Fusarium oxysporum; assay type: cell-based, Fusarium oxysporum (ATCC 48112); conditions: read-out: Minimum Inhibitory Concentration (MIC)
# Procedure: as §1, §8, §3, §9, §6, §7
# Aspergillus niger = test: MIC in malt yeast agar, Aspergillus niger; assay type: cell-based, Aspergillus niger (ATCC 16404); conditions: read-out: Minimum Inhibitory Concentration (MIC)
# Procedure: as §1, §8, §3, §9, §6, §7
# Candida albicans = test: MIC in malt yeast agar, Candida albicans; assay type: cell-based, Candida albicans (ATCC 10231); conditions: read-out: Minimum Inhibitory Concentration (MIC)
# Procedure: as §1, §8, §3, §9, §6, §7
# Proteus vulgaris = test: MIC in nutrient agar, Proteus vulgaris; assay type: cell-based, Proteus vulgaris (ATCC 881)
# Procedure: as §1, §2, §3, §4, §5, §6, §7
# [2] = 48 h, pH 6.8, read-out: Minimum Inhibitory Concentration (MIC)
# [3] = 48 h, pH 8.2, read-out: Minimum Inhibitory Concentration (MIC)
compound,measurement,setting,value
"N#CSCSc1nsnc1Cl [Example 3, 4-chloro-3-thiomethylthiocyanato-1,2,5,-thiadiazole]",MIC,"[1]; PRD, pH 6.8, 30° C., 48 hours, read-out: Minimum Inhibitory Concentration (MIC)",< 10 µg/mL
same,MIC,"[1]; PRD, pH 8.2, 30° C., 48 hours, read-out: Minimum Inhibitory Concentration (MIC)",25 µg/mL
same,MIC,"Enterobacter aerogenes; Ea, pH 6.8, 30° C., 48 hours, read-out: Minimum Inhibitory Concentration (MIC)",25 µg/mL
same,MIC,"Enterobacter aerogenes; Ea, pH 8.2, 30° C., 48 hours, read-out: Minimum Inhibitory Concentration (MIC)",100 µg/mL
same,MIC,"Klebsiella pneumonias; Kp, pH 6.8, 30° C., 48 hours, read-out: Minimum Inhibitory Concentration (MIC)",25 µg/mL
same,MIC,"Klebsiella pneumonias; Kp, pH 8.2, 30° C., 48 hours, read-out: Minimum Inhibitory Concentration (MIC)",50 µg/mL
same,MIC,"Pseudomonas aeruginosa; Pa, pH 6.8, 30° C., 48 hours, read-out: Minimum Inhibitory Concentration (MIC)",25 µg/mL
same,MIC,"Pseudomonas aeruginosa; Pa, pH 8.2, 30° C., 48 hours, read-out: Minimum Inhibitory Concentration (MIC)",100 µg/mL
same,MIC,"Trichoderma viride; Tv, malt yeast agar, 30° C., 72 hours for fungi",< 10 µg/mL
same,MIC,"Saccharomyces cerevisiae; Sc, malt yeast agar, 30° C., 48 hours for yeast",< 10 µg/mL
same,MIC,"Aureobasidium pullulan; Ap, malt yeast agar, 30° C., 72 hours for fungi",< 10 µg/mL
same,MIC,"Staphylococcus aureus; Sa, pH 6.8, 30° C., 48 hours, read-out: Minimum Inhibitory Concentration (MIC)",25 µg/mL
same,MIC,"Staphylococcus aureus; Sa, pH 8.2, 30° C., 48 hours, read-out: Minimum Inhibitory Concentration (MIC)",50 µg/mL
same,MIC,"Salmonella choleraesuis; Sc, pH 6.8, 30° C., 48 hours, read-out: Minimum Inhibitory Concentration (MIC)",25 µg/mL
same,MIC,"Salmonella choleraesuis; Sc, pH 8.2, 30° C., 48 hours, read-out: Minimum Inhibitory Concentration (MIC)",50 µg/mL
same,MIC,"Penicillium chrysogenum; Pc, malt yeast agar, 30° C., 72 hours for fungi",< 10 µg/mL
same,MIC,"Escherichia coli; Ec, pH 6.8, 30° C., 48 hours, read-out: Minimum Inhibitory Concentration (MIC)",25 µg/mL
same,MIC,"Escherichia coli; Ec, pH 8.2, 30° C., 48 hours, read-out: Minimum Inhibitory Concentration (MIC)",50 µg/mL
same,MIC,"Bacillus subtilis; Bs, pH 6.8, 30° C., 48 hours, read-out: Minimum Inhibitory Concentration (MIC)",< 10 µg/mL
same,MIC,"Bacillus subtilis; Bs, pH 8.2, 30° C., 48 hours, read-out: Minimum Inhibitory Concentration (MIC)",25 µg/mL
same,MIC,"Fusarium oxysporum; Fo, malt yeast agar, 30° C., 72 hours for fungi",< 10 µg/mL
same,MIC,"Aspergillus niger; An, malt yeast agar, 30° C., 72 hours for fungi",< 10 µg/mL
same,MIC,"Candida albicans; Ca, malt yeast agar, 30° C., 48 hours for yeast",< 10 µg/mL
same,MIC,"Proteus vulgaris; Pv, pH 6.8, 30° C., 48 hours, read-out: Minimum Inhibitory Concentration (MIC)",< 10 µg/mL
same,MIC,"Proteus vulgaris; Pv, pH 8.2, 30° C., 48 hours, read-out: Minimum Inhibitory Concentration (MIC)",25 µg/mL
"N#CSc1nsnc1Cl [Example 1, 4-Chloro-3-thiocyanato-1,2,5-thiadiazole]",MIC,[1]; [2],50 µg/mL
same,MIC,[1]; [3],> 500 µg/mL
same,MIC,Enterobacter aerogenes; [2],50 µg/mL
same,MIC,Enterobacter aerogenes; [3],> 500 µg/mL
same,MIC,Klebsiella pneumonias; [2],25 µg/mL
same,MIC,Klebsiella pneumonias; [3],> 500 µg/mL
same,MIC,Pseudomonas aeruginosa; [2],25 µg/mL
same,MIC,Pseudomonas aeruginosa; [3],> 500 µg/mL
same,MIC,Trichoderma viride; 72 h,< 10 µg/mL
same,MIC,Saccharomyces cerevisiae; 48 h,< 10 µg/mL
same,MIC,Aureobasidium pullulan; 72 h,< 10 µg/mL
same,MIC,Staphylococcus aureus; [2],25 µg/mL
same,MIC,Staphylococcus aureus; [3],> 500 µg/mL
same,MIC,Salmonella choleraesuis; [2],25 µg/mL
same,MIC,Salmonella choleraesuis; [3],> 500 µg/mL
same,MIC,Penicillium chrysogenum; 72 h,< 10 µg/mL
same,MIC,Escherichia coli; [2],25 µg/mL
same,MIC,Escherichia coli; [3],> 500 µg/mL
same,MIC,Bacillus subtilis; [2],25 µg/mL
same,MIC,Bacillus subtilis; [3],500 µg/mL
same,MIC,Fusarium oxysporum; 72 h,< 10 µg/mL
same,MIC,Aspergillus niger; 72 h,< 10 µg/mL
same,MIC,Candida albicans; 48 h,< 10 µg/mL
same,MIC,Proteus vulgaris; [2],25 µg/mL
same,MIC,Proteus vulgaris; [3],> 500 µg/mL

# Reference: patent publication US5491155A, “Substituted thiadiazoles, compositions containing them and their use as antimicrobial and marine antifouling agents” (The Dow Chemical Company, priority 1994, dated 1996)
